According to US20170002057A1, “COMPOSITIONS CONTAINING FUSION PROTEIN OF ALBUMIN AND ANALOGS THEREOF, METHODS FOR MAKING AND USING THE SAME” (NAL PHARMACEUTICAL GROUP LIMITED, priority 2015, published 2017):

What was measured:
[1] = In vivo pharmacokinetic profile in rat after IV injection (ELISA)
Procedure: The rat was restrained manually at the designated time points, approximately 300 μL of blood sample was collected via jugular vein into EDTA-K2 tubes and subsequently centrifuged at 4° C. and 1500 g for 10 min to obtain plasma samples.
Standard curve was prepared by the following procedure. Duplicate standard points were prepared by serially diluting Free SST Stock (1 mg/mL) with diluent buffer to produce 5, 2.5, 1.25, 0.625, 0.313, 0.156, 0.078 and 0.039 ng/mL solutions.
Standard curve was prepared by the following procedure. Duplicate standard points were prepared by serially diluting SST fusion protein (2.42 mg/mL) with pooled rat plasma to produce 225, 112.5, 56.2, 28.1, 14.1, 7.03, 3.51 and 1.76 ng/mL solutions.
ELISA assay has been performed as described in Example 5-3.

[2] = biological target: human somatostatin sst2 receptor (human) (UniProt P30874); test: cell-based or functional assay
Chain of UniProt P30874 (P30874 whole entry, the tested form may be a part): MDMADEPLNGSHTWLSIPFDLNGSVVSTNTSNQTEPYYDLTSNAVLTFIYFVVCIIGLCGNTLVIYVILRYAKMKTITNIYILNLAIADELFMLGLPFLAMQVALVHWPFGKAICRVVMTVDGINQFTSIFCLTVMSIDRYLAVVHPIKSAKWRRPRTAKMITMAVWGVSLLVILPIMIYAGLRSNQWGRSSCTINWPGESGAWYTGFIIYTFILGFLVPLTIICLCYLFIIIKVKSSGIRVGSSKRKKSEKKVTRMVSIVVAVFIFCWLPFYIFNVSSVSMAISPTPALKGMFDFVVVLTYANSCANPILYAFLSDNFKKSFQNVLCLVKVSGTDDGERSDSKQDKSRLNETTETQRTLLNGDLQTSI

[3] = rat, intravenous, SST 0.02 mg/kg, SST fusion protein 27.1 mg/kg

Compound	clinical signs after injection ([1]; male Sprague Dawley rats, tail vein injection, SST 0.02 mg/kg, SST fusion protein 27.1 mg/kg)	level at 1 min ([1]; male, Sprague Dawley, in vivo, rat, IV 0.02 mg/kg, sampling time 1 min, read-out: Plasma SST concentration, Mean) [ng/mL]	level at 2 min ([1]; male, Sprague Dawley, in vivo, rat, IV 0.02 mg/kg, sampling time 2 min, read-out: Plasma SST concentration, Mean) [ng/mL]	level at 4 min ([1]; male, Sprague Dawley, in vivo, rat, IV 0.02 mg/kg, sampling time 4 min, read-out: Plasma SST concentration, Mean) [ng/mL]	level at 0.1 h ([1]; male, Sprague Dawley, in vivo, rat, IV 0.02 mg/kg, sampling time 6 min, read-out: Plasma SST concentration, Mean) [ng/mL]	level at 8 min ([1]; male, Sprague Dawley, in vivo, rat, IV 0.02 mg/kg, sampling time 8 min, read-out: Plasma SST concentration, Mean) [ng/mL]	AUC(0-inf) ([1]; male, Sprague Dawley, in vivo, rat, intravenous, SST 0.02 mg/kg, SST fusion protein 27.1 mg/kg, read-out: AUC0-inf, Mean (converted)) [ng·h/mL]	AUC(0-t) ([1]; male, Sprague Dawley, in vivo, rat, intravenous, SST 0.02 mg/kg, SST fusion protein 27.1 mg/kg, read-out: AUC0-t, Mean (converted)) [ng·h/mL]	clearance ([1]; male, Sprague Dawley, in vivo, rat, intravenous, SST 0.02 mg/kg, SST fusion protein 27.1 mg/kg, read-out: CL, Mean) [mL/min/kg]	Vd ([1]; male, Sprague Dawley, in vivo, rat, intravenous, SST 0.02 mg/kg, SST fusion protein 27.1 mg/kg, read-out: Vdss, Mean) [L/kg]	Plasma SST concentration, Mean ([1]; rat, IV 0.02 mg/kg, sampling time 0 min) [ng/mL]	AUMC0-inf, Mean [1, 3] [mg · h^2/mL]	AUMC0-t, Mean [1, 3] [mg · h^2/mL]	MRTIV, Mean [1, 3] [h]	EC50 values of the inhibition of cAMP production [2] [nM]
C[C@H](N)C(=O)NCC(=O)N[C@H]1CSSC[C@@H](C(=O)O)NC(=O)[C@H](CO)NC(=O)[C@H]([C@@H](C)O)NC(=O)[C@H](Cc2ccccc2)NC(=O)[C@H]([C@@H](C)O)NC(=O)[C@H](CCCCN)NC(=O)[C@H](Cc2c[nH]c3ccccc23)NC(=O)[C@H](Cc2ccccc2)NC(=O)[C@H](Cc2ccccc2)NC(=O)[C@H](CC(N)=O)NC(=O)[C@H](CCCCN)NC1=O [Free SST]	no negative clinical signs were observed	7.13	4.95	4.3	1.07	2.95	0.73	0.483	510	2.19	0	173	55.9	4.1	–
Octreotide (peptide)	–	–	–	–	–	–	–	–	–	–	–	–	–	–	0.041
